Results as given in patent publication US5843954A, “Camptothecin derivatives, preparations thereof and antitumor agents” (priority 1994, dated 1998).
In brackets after ≈: the same amount, converted by molar mass. Structures can show the parent of a compound that is named as a salt.

Experiments:
[1] = Acute toxicity test by intraperitoneal administration; details: mouse, in vivo, ip, ICR male mice, 1 week observation
Procedure: Acute toxicity test was conducted by intraperitoneal administration using a group of twenty ICR male mice (4 weeks old, body weight around 20 g).
LD50 value was calculated by the Richfield-Willcokson method from a lethal ratio observing the fate of mice during 1 week after administration of a test compound.

[2] = Antitumor activity for L1210 (life prolonging effect, mouse leukemia transplanted intraperitoneally); type: in vivo; details: mouse, in vivo, ip; numerator of therapeutic index; i.p. total dose; read-out: Maximum tolerable dose
Procedure: (§1) 5×10^5 cells of mouse leukemia L1210 were transplanted intraperitoneally to a group of six female CDF1 mice (7 weeks old, body weight 17-19 g). The test compound was administered intraperitoneally on day 1, 5 and 9 and its life prolonging effect was observed.
(§2) In a case of the administration of a test compound as an acid addition salt the test compound was dissolved in water. The total administration amount was 1.56 mg/kg-400 mg/kg. The antitumor activity was expressed by the value (T/C%) wherein T denotes the mean survival days in the drug administered group and C denotes those in the non administered group. In case of equal to or more than 125% the drug is considered to be effective.

[3] = system: mouse leukemia L1210; assay: as above; type: in vivo; details: for 40-day survivors: group of six female CDF1 mice; for Therapeutic Index (Maximum tolerable dose/Minimum effective dose): i.p., L1210, CDF1 mice; for minimal effective dose: Mus musculus, L1210, ip, read-out: Minimum effective dose
Procedure: as §1, §2

[4] = Water solubility; type: physicochemical
[5] = denominator of therapeutic index, i.p. total dose

Compound: CC[C@@](O)(C(=O)O)c1cc2n(c(=O)c1CO)Cc1cc3ccccc3nc1-2 [CPT-Na salt, reference compound]
- LD50 at 168 h [1]: 227 mg/kg
- MTD [2]: 60 mg/kg
- Optimum dose: Total dose ([3]; CDF1 mice, i.p. on day 1, 5 and 9, total dose): 60 mg/kg
- 40-day survivors ([3]; at optimum dose): 0/6
- T/C % ([3]; at optimum dose, i.p. on day 1, 5 and 9, mean survival days treated/non administered, >=125% effective): 203%
- Minimum effective dose [3, 5]: 10 mg/kg
- Therapeutic Index (Maximum tolerable dose/Minimum effective dose) [3]: 6

Compound: CCOc1ccc2nc3c(c(C)c2c1)Cn1c-3cc([C@@](O)(CC)C(=O)NCCN(C)C)c(COC(=O)CCSC)c1=O [Compound C1]
- LD50 at 168 h [1]: 164 mg/kg
- solubility [4]: > 64 mg/mL
- MTD [2]: 6.25 mg/kg
- minimal effective dose [3, 5]: 1.56 mg/kg
- 40-day survivors ([3]; at optimum dose): 0/6
- Therapeutic Index (Maximum tolerable dose/Minimum effective dose) [3]: 4

Compound: CC[C@@](O)(C(=O)NCCN(C)C)c1cc2n(c(=O)c1COC(=O)CCSC)Cc1c-2nc2cc(Br)ccc2c1C [Compound C2]
- LD50 at 168 h [1]: 241 mg/kg
- solubility [4]: > 67 mg/mL
- MTD [2]: 25 mg/kg
- minimal effective dose [3, 5]: 3.13 mg/kg
- 40-day survivors ([3]; at optimum dose): 0/6
- Therapeutic Index (Maximum tolerable dose/Minimum effective dose) [3]: 8

Compound: CCC(=O)OCc1c([C@@](O)(CC)C(=O)NCCN(C)C)cc2n(c1=O)Cc1c-2nc2ccc(Cl)cc2c1CC [Compound C3]
- LD50 at 168 h [1]: 186 mg/kg
- solubility [4]: 29 mg/mL (≈ 52.2 mM)
- MTD [2]: 6.25 mg/kg
- minimal effective dose [3, 5]: < 1.56 mg/kg
- 40-day survivors ([3]; at optimum dose): 1/6
- Therapeutic Index (Maximum tolerable dose/Minimum effective dose) [3]: > 4

Compound: CCCC(=O)OCc1c([C@@](O)(CC)C(=O)NCCN(C)C)cc2n(c1=O)Cc1c-2nc2ccc(Cl)cc2c1CC [Compound C4]
- LD50 at 168 h [1]: 142 mg/kg
- solubility [4]: 41 mg/mL (≈ 72 mM)
- MTD [2]: 6.25 mg/kg
- minimal effective dose [3, 5]: < 1.56 mg/kg
- 40-day survivors ([3]; at optimum dose): 1/6
- Therapeutic Index (Maximum tolerable dose/Minimum effective dose) [3]: > 4

Compound: CCc1c2c(nc3ccc(Cl)cc13)-c1cc([C@@](O)(CC)C(=O)NCCN(C)C)c(COC(=O)CCSC)c(=O)n1C2 [Compound C5]
- LD50 at 168 h [1]: 168 mg/kg
- solubility [4]: 21 mg/mL (≈ 34.9 mM)
- MTD [2]: 6.25 mg/kg
- minimal effective dose [3, 5]: < 1.56 mg/kg
- 40-day survivors ([3]; at optimum dose): 3/6
- Therapeutic Index (Maximum tolerable dose/Minimum effective dose) [3]: > 4

Compound: CCc1c2c(nc3ccc(Br)cc13)-c1cc([C@@](O)(CC)C(=O)NCCN(C)C)c(COC(=O)CCSC)c(=O)n1C2 [Compound C6]
- LD50 at 168 h [1]: 116 mg/kg
- solubility [4]: 25 mg/mL (≈ 38.7 mM)
- MTD [2]: 6.25 mg/kg
- minimal effective dose [3, 5]: < 1.56 mg/kg
- 40-day survivors ([3]; at optimum dose): 1/6
- Therapeutic Index (Maximum tolerable dose/Minimum effective dose) [3]: > 4

Compound: CCc1c2c(nc3ccc(C)cc13)-c1cc([C@@](O)(CC)C(=O)NCCN(C)C)c(COC(=O)CCSC)c(=O)n1C2 [Compound C7]
- LD50 at 168 h [1]: 234 mg/kg
- solubility [4]: 21 mg/mL (≈ 36.2 mM)
- MTD [2]: 100 mg/kg
- minimal effective dose [3, 5]: 3.13 mg/kg
- 40-day survivors ([3]; at optimum dose): 5/6
- Therapeutic Index (Maximum tolerable dose/Minimum effective dose) [3]: 32

Compound: CCC(=O)OCc1c([C@@](O)(CC)C(=O)NCCN(C)C)cc2n(c1=O)Cc1c-2nc2cc(F)ccc2c1CC [Compound C8]
- LD50 at 168 h [1]: 124 mg/kg
- solubility [4]: 20 mg/mL (≈ 37.1 mM)
- MTD [2]: 12.5 mg/kg
- minimal effective dose [3, 5]: 1.56 mg/kg
- 40-day survivors ([3]; at optimum dose): 4/6
- Therapeutic Index (Maximum tolerable dose/Minimum effective dose) [3]: 8

Compound: CCCC(=O)OCc1c([C@@](O)(CC)C(=O)NCCN(C)C)cc2n(c1=O)Cc1c-2nc2cc(F)ccc2c1CC [Compound C9]
- LD50 at 168 h [1]: 152 mg/kg
- solubility [4]: > 59 mg/mL
- MTD [2]: 12.5 mg/kg
- minimal effective dose [3, 5]: 1.56 mg/kg
- 40-day survivors ([3]; at optimum dose): 2/6
- Therapeutic Index (Maximum tolerable dose/Minimum effective dose) [3]: 8

Compound: CCc1c2c(nc3cc(F)ccc13)-c1cc([C@@](O)(CC)C(=O)NCCN(C)C)c(COC(=O)CCSC)c(=O)n1C2 [Compound C10]
- LD50 at 168 h [1]: 146 mg/kg
- solubility [4]: > 62 mg/mL
- MTD [2]: 12.5 mg/kg
- minimal effective dose [3, 5]: 1.56 mg/kg
- 40-day survivors ([3]; at optimum dose): 1/6
- Therapeutic Index (Maximum tolerable dose/Minimum effective dose) [3]: 8

Compound: CCC(=O)OCc1c([C@@](O)(CC)C(=O)NCCN(C)C)cc2n(c1=O)Cc1c-2nc2cc(F)c(F)cc2c1CC [Compound C13]
- LD50 at 168 h [1]: 67.6 mg/kg
- solubility [4]: > 59 mg/mL
- 40-day survivors ([3]; at optimum dose): 0/6

Compound: CCCC(=O)OCc1c([C@@](O)(CC)C(=O)NCCN(C)C)cc2n(c1=O)Cc1c-2nc2cc(F)c(F)cc2c1CC [Compound C14]
- LD50 at 168 h [1]: 98.3 mg/kg
- solubility [4]: > 60 mg/mL
- 40-day survivors ([3]; at optimum dose): 1/6

Compound: CCc1c2c(nc3cc(F)c(F)cc13)-c1cc([C@@](O)(CC)C(=O)NCCN(C)C)c(COC(=O)CCSC)c(=O)n1C2 [Compound C15]
- LD50 at 168 h [1]: 85.2 mg/kg
- solubility [4]: > 64 mg/mL
- 40-day survivors ([3]; at optimum dose): 0/6

Compound: CCc1c2c(nc3cc(F)c(OC)cc13)-c1cc([C@@](O)(CC)C(=O)NCCN(C)C)c(COC(=O)CCSC)c(=O)n1C2 [Compound C22]
- LD50 at 168 h [1]: 68.6 mg/kg
- solubility [4]: > 65 mg/mL
- 40-day survivors ([3]; at optimum dose): 0/6

Compound: CC=CC(=O)OCc1c([C@@](O)(CC)C(=O)NCCN(C)C)cc2n(c1=O)Cc1c-2nc2ccc(O)cc2c1CC [Compound C34]
- solubility [4]: > 59 mg/mL

Compound: CCc1c2c(nc3ccc(C)cc13)-c1cc([C@@](O)(CC)C(=O)NCCN(C)C)c(COC(=O)c3ccncc3)c(=O)n1C2 [Compound C39]
- LD50 at 168 h [1]: 320 mg/kg
- MTD [2]: 50 mg/kg
- minimal effective dose [3, 5]: 3.13 mg/kg
- 40-day survivors ([3]; at optimum dose): 3/6
- Therapeutic Index (Maximum tolerable dose/Minimum effective dose) [3]: 16

Compound: CCc1c2c(nc3ccc(Cl)cc13)-c1cc([C@@](O)(CC)C(=O)NCCN(C)C)c(COC(=O)c3ccncc3)c(=O)n1C2 [Compound C40]
- LD50 at 168 h [1]: 213 mg/kg
- MTD [2]: 6.25 mg/kg
- minimal effective dose [3, 5]: 1.56 mg/kg
- 40-day survivors ([3]; at optimum dose): 1/6
- Therapeutic Index (Maximum tolerable dose/Minimum effective dose) [3]: 4

Compound: CCc1c2c(nc3cc(F)ccc13)-c1cc([C@@](O)(CC)C(=O)NCCN(C)C)c(COC(=O)c3ccncc3)c(=O)n1C2 [Compound C41]
- LD50 at 168 h [1]: 220 mg/kg
- MTD [2]: 25 mg/kg
- minimal effective dose [3, 5]: < 1.56 mg/kg
- 40-day survivors ([3]; at optimum dose): 2/6
- Therapeutic Index (Maximum tolerable dose/Minimum effective dose) [3]: > 16

Compound: CCc1c2c(nc3cc(F)c(C)cc13)-c1cc([C@@](O)(CC)C(=O)NCCN(C)C)c(COC(=O)c3ccncc3)c(=O)n1C2 [Compound C42]
- LD50 at 168 h [1]: 310 mg/kg
- MTD [2]: 12.5 mg/kg
- minimal effective dose [3, 5]: 1.56 mg/kg
- 40-day survivors ([3]; at optimum dose): 2/6
- Therapeutic Index (Maximum tolerable dose/Minimum effective dose) [3]: > 8

Compound: CCc1c2c(nc3cc(F)c(OC)cc13)-c1cc([C@@](O)(CC)C(=O)NCCN(C)C)c(COC(=O)c3ccncc3)c(=O)n1C2 [Compound C43]
- LD50 at 168 h [1]: 165 mg/kg
- MTD [2]: 6.25 mg/kg
- minimal effective dose [3, 5]: 1.56 mg/kg
- 40-day survivors ([3]; at optimum dose): 2/6
- Therapeutic Index (Maximum tolerable dose/Minimum effective dose) [3]: > 4

Compound: CCc1c2c(nc3ccc(O)cc13)-c1cc([C@@](O)(CC)C(=O)NCCN(C)C)c(COC(C)=O)c(=O)n1C2 [Compound C45]
- LD50 at 168 h [1]: 376 mg/kg
- MTD [2]: 400 mg/kg
- minimal effective dose [3, 5]: 100 mg/kg
- 40-day survivors ([3]; at optimum dose): 0/6
- Therapeutic Index (Maximum tolerable dose/Minimum effective dose) [3]: 4

Compound: CCc1c2c(nc3ccc(O)cc13)-c1cc([C@@](O)(CC)C(=O)NCCN(C)C)c(COC(=O)C(C)C)c(=O)n1C2 [Compound C46]
- LD50 at 168 h [1]: 478 mg/kg
- MTD [2]: 400 mg/kg
- minimal effective dose [3, 5]: 25 mg/kg
- 40-day survivors ([3]; at optimum dose): 0/6
- Therapeutic Index (Maximum tolerable dose/Minimum effective dose) [3]: 16

Compound: CCOCCC(=O)OCc1c([C@@](O)(CC)C(=O)NCCN(C)C)cc2n(c1=O)Cc1c-2nc2ccc(O)cc2c1CC [Compound C47]
- LD50 at 168 h [1]: 471 mg/kg
- MTD [2]: 200 mg/kg
- minimal effective dose [3, 5]: 50 mg/kg
- 40-day survivors ([3]; at optimum dose): 0/6
- Therapeutic Index (Maximum tolerable dose/Minimum effective dose) [3]: 4

Compound: CCc1c2c(nc3ccc(OC(C)=O)cc13)-c1cc([C@@](O)(CC)C(=O)NCCN(C)C)c(COC(=O)c3ccc(F)cc3)c(=O)n1C2 [Compound C48]
- LD50 at 168 h [1]: 418 mg/kg
- MTD [2]: 200 mg/kg
- minimal effective dose [3, 5]: 25 mg/kg
- 40-day survivors ([3]; at optimum dose): 0/6
- Therapeutic Index (Maximum tolerable dose/Minimum effective dose) [3]: 8
